Source: publication PMC11748689, “Pharmacological and structural understanding of the Trypanosoma cruzi proteasome provides key insights for developing site-specific inhibitors” (The Journal of Biological Chemistry, 2024)
Non-standard residues stand in square brackets, D forms with d. Residues, ends and D or L forms follow the SMILES beside them. *: point of attachment. Nva = CCC[C@H](N)C(=O)O; Cbz = O=C(OCc1ccccc1)*

Legend:
Type in all cases: biochemical
[1] = molecular target: native T. cruzi proteasome (caspase-like activity, β1) (Trypanosoma cruzi, UniProt V5BHX1); experiment: Caspase-like activity assay (Proteasome-Glo), native T. cruzi proteasome; conditions: mean ± SD, N = 3; for IC50: read-out: pIC50, Caspase Assay, Native (converted)
Experimental: (§1) Chymotrypsin-, trypsin-, and caspase-like activity assays were performed using a commercially available Proteasome-Glo 3-substrate system assay kit (catalog number G8532) (Promega Corporation) according to the manufacturers protocols and as previously described ([24]).
(§2) Prior to running assays, Proteasome-Glo buffer was used to reconstitute the luciferin detection reagent (containing a recombinant thermostable luciferase enzyme). The resuspended luciferin detection reagent was then mixed with Proteasome-Glo chymotrypsin-, trypsin- or caspase-like substrates (either 40 μM suc-Leu-Leu-Val-Tyr-aminoluciferin, 30 μM Z-Leu-Arg-Arg-aminoluciferin (Z is benzyloxycarbonyl) or 40 μM Z-Nle-Pro-Nle-Asp-aminoluciferin respectively (these concentrations represent 2x final assay concentrations)). These substrate mixtures were allowed to incubate at room temperature for 60 min prior to use to allow the removal of any contaminating free aminoluciferin.
(§3) When proteasome inhibitors were to be screened in the chymotrypsin, trypsin, and caspase assays, test compounds were dispensed into assay wells using an ECHO 550 acoustic dispenser (Labcyte) (final DMSO concentration 1%). Compounds were tested in either a 10-point concentration series (30 μM top final assay concentration, 1 in 3 dilution series) or a 12-point concentration series (30 μM top final assay concentration, 1 in 2.5 dilution series).
(§4) Proteasome assays were then performed as described above using Promega Proteasome-Glo 3-substrate system assay kit. […] Diluted proteasome (4 μl) was added to assay plates using an electronic multichannel pipette (Integra Biosciences Ltd) and the proteasome incubated with compound for 60 min at room temperature.
(§5) Following the 60 min incubation of proteasome and compounds, assays were initiated with the addition of 4 μl of a substrate mix (containing substrate and the luciferin detection reagent) using an electronic multichannel pipette. Final assay concentrations of substrates used were either 20 μM Suc-Leu-Leu-Val-Tyr-aminoluciferin, 15 μM Z-Leu-Arg-Arg-aminoluciferin, or 20 μM Z-Nle-Pro-Nle-Asp-aminoluciferin for chymotrypsin-, trypsin-, or caspase-like activity, respectively. Following a further 60 min assay incubation, luminescence was read using an EnVision 2102 Multilabel Reader (PerkinElmer, Inc) with 0.2 s per well reading time.
(§6) All data processing was performed using Microsoft Excel for Microsoft 365 software.
(§7) Nonlinear dose-response curve fitting was carried out using the Microsoft Excel add-in, XLfit (IDBS). Percentage inhibition data were either fitted to a standard 4-parameter logistic fit model (XLfit model 205; Equation 2) or a biphasic model (either XLfit model 300; Equation 3 or a custom biphasic model; Equation 4 (used in cases where the top and/or bottom parameters deviated from 100%/0% inhibition)).(2) y=A+(B−A)/1+(C/x)^D Where A = % inhibition at bottom, B = % inhibition at top, C = IC50, D = slope, x = inhibitor concentration and y = % inhibition.(3) y=(A/(1+10^(C−log(x))∗B))+((100−A)/(1+10^(D−log(x))∗B)) With A = % inhibition at midplateau, B = slope, C = log(IC50^A), D = log(IC50^B)).
(§8) All IC50 data generated were converted to pIC50 using Equation 5.

[2] = molecular target: recombinant β4^R mutant T. cruzi proteasome (trypsin-like activity) (Trypanosoma cruzi, UniProt V5BCU3); conditions: mean ± SD, N = 3
Experimental: (§9) Point mutations were created in individual subunits using overlapping PCR from the original templates using Polh and Tn7L primers outside the genes and suitable internal primers to introduce selected mutations. For Δβ1Δβ2, β1 Thr 55, and β2 Thr 67 were both mutated to Ala, the β4^R mutant was produced by mutating Phe 24 and Ile 29 to Leu and Met respectively in β4 subunit.
as §1, §2
(§10) Proteasome assays were carried out using 384-well, white, low-volume plates (catalog number 784904) (Greiner Bio-One) at room temperature (∼23 °C) in 8 μl reaction volumes. When activity checks were to be run in the presence or absence of a fixed concentration of proteasome inhibitor, 80 nL of the inhibitor (at a concentration 100x the required final assay concentration), or 80 nL dimethylsulfoxide (DMSO), were dispensed into assay plates using an Echo 550 acoustic dispenser (Labcyte).
(§11) A 1 in 2 dilution series of the various T. cruzi proteasome samples (native, recombinant WT, β4^R mutant, and Δβ1Δβ2 mutant) were produced in assay buffer (50 mM Tris–HCl, pH 7.5, 10 mM sucrose, 5 mM MgCl2, 1 mM DTT, 2 mM ATP, 150 mM NaCl, 1 mM EDTA, and 0.05 mg/ml bovine serum albumin). Subsequently, 4 μl of the various concentrations of diluted proteasome were added to assay plates using an electronic multichannel pipette (Integra Biosciences Ltd). When kinetic read activity checks were performed (Fig. 2), proteasome final assay concentrations used were 115 μg/ml, 115 μg/ml, and 230 μg/ml native proteasome (in the chymotrypsin, trypsin, and caspase assays, respectively), and 4.1 μg/ml, 3.4 μg/ml, or 1.4 μg/ml recombinant WT proteasome (in the chymotrypsin, trypsin, and caspase assays, respectively). When activity checks were to be run in the presence or absence of a proteasome inhibitor plates containing inhibitor or DMSO control were incubated with the relevant proteasome sample for 60 min at room temperature (this step was not included in activity check experiments where compounds were not used).
(§12) Following the 60 min incubation of proteasome and compound (if required), assays were initiated with the addition of 4 μl of substrate mix (containing substrate and the luciferin detection reagent) using an electronic multichannel pipette. Final assay concentrations of substrates used were either 20 μM Suc-Leu-Leu-Val-Tyr-aminoluciferin, 15 μM Z-Leu-Arg-Arg-aminoluciferin, or 20 μM Z-Nle-Pro-Nle-Asp-aminoluciferin for chymotrypsin-, trypsin- or caspase-like activity respectively.
(§13) Luminescence was read either kinetically or as an endpoint read using an EnVision 2102 Multilabel Reader (PerkinElmer, Inc) with 0.2 s per well reading time. When kinetic assays were run, luminescence was read every 5 min for 90 min. Endpoint assays were run for 60 min before luminescence was read. All data processing and linear fit analyses were performed using Microsoft Excel for Microsoft 365 software (Redmond, Washington; https://www.microsoft.com/).

[3] = molecular target: recombinant β4^R mutant T. cruzi proteasome (caspase-like activity) (Trypanosoma cruzi, UniProt V5BHX1); experiment: Caspase-like activity assay (Proteasome-Glo), recombinant β4^R mutant T. cruzi proteasome; conditions: for pIC50, Caspase Assay, β4^R mutant: mean ± SD, N = 3
Experimental: as §9, §1, §2, §10, §11, §12, §13

[4] = molecular target: recombinant WT T. cruzi proteasome (trypsin-like activity, β2) (Trypanosoma cruzi, UniProt V5BCU3); experiment: biochemical; conditions: mean ± SD, N = 3; for IC50: read-out: pIC50, Trypsin Assay, Wild-type (converted)
Experimental: as §1, §2, §3, §4, §5, §6, §7, §8

[5] = molecular target: native T. cruzi proteasome (trypsin-like activity, β2) (Trypanosoma cruzi, UniProt V5BCU3); experiment: Trypsin-like activity assay (Proteasome-Glo), native T. cruzi proteasome; conditions: mean ± SD, N = 3; for IC50: read-out: pIC50, Trypsin Assay, Native (converted)
Experimental: as §1, §2, §3, §4, §5, §6, §7, §8

[6] = molecular target: recombinant WT T. cruzi proteasome (caspase-like activity, β1) (Trypanosoma cruzi, UniProt V5BHX1); experiment: Caspase-like activity assay (Proteasome-Glo), recombinant wild-type T. cruzi proteasome; conditions: for pIC50, Caspase Assay, Wild-type: mean ± SD, N = 3
Experimental: as §1, §2, §3, §4, §5, §6, §7, §8

[7] = molecular target: native T. cruzi proteasome (chymotrypsin-like activity, β5) (Trypanosoma cruzi, UniProt V5BU39+V5C017); experiment: Chymotrypsin-like activity assay (Proteasome-Glo), native T. cruzi proteasome; conditions: for pIC50, Chymotrypsin Assay, Native: mean ± SD, N = 3, biphasic curves (a): pIC50 of most potent curve, 60 min preincubation
Experimental: as §1, §2, §3, §4, §5, §6, §7, §8

[8] = molecular target: recombinant WT T. cruzi proteasome (chymotrypsin-like activity, β5) (Trypanosoma cruzi, UniProt V5BU39+V5C017); experiment: biochemical; conditions: for maximum % inhibition plateau, Chymotrypsin Assay, Wild-type: mean ± SD, N = 3 (N = 2 for DDD02091966), (a) mid-point plateau from biphasic curve fits
Experimental: as §1, §2, §10, §11, §12, §13, §3

[9] = molecular target: recombinant Δβ1Δβ2 mutant T. cruzi proteasome (chymotrypsin-like activity) (Trypanosoma cruzi, UniProt V5BU39+V5C017); experiment: biochemical; conditions: for maximum % inhibition plateau, Chymotrypsin Assay, Δβ1Δβ2 mutant / pIC50, Chymotrypsin Assay, Δβ1Δβ2 mutant: mean ± SD, N = 3
Experimental: as §9, §1, §2, §10, §11, §12, §13

[10] = molecular target: recombinant β4^R mutant T. cruzi proteasome (chymotrypsin-like activity) (Trypanosoma cruzi, UniProt V5BU39+V5C017, F24L/I29M); experiment: biochemical; conditions: for pIC50, Chymotrypsin Assay, β4^R mutant: mean ± SD, N = 3, biphasic curves (a): pIC50 of most potent curve
Experimental: as §9, §1, §2, §10, §11, §12, §13

SMILES	IC50 [1]	pIC50, Trypsin Assay, β4^R mutant [2]	IC50 [3]	IC50 [4]	IC50 [5]	IC50 [6]	pIC50, Caspase Assay, Native [1]	pIC50, Chymotrypsin Assay, Native [7]	pIC50, Caspase Assay, β4^R mutant [3]	pIC50, Chymotrypsin Assay, Wild-type [8]	maximum % inhibition plateau, Chymotrypsin Assay, Wild-type [8]	pIC50, Trypsin Assay, Wild-type [4]	maximum % inhibition plateau, Chymotrypsin Assay, Δβ1Δβ2 mutant [9]	pIC50, Chymotrypsin Assay, Δβ1Δβ2 mutant [9]	pIC50, Chymotrypsin Assay, β4^R mutant [10]	pIC50, Trypsin Assay, Native [5]	pIC50, Caspase Assay, Wild-type [6]	IC50 [7]	IC50 [8]	IC50 [9]	also measured
COC[C@H](NC(=O)c1cnc(C)s1)C(=O)N[C@@H](COC)C(=O)N[C@@H](Cc1ccccc1)C(=O)[C@@]1(C)CO1 [Oprozomib]	> 30200 nM	<4.52	> 30200 nM	> 30200 nM	> 30200 nM	> 30200 nM	–	–	–	–	–	–	–	–	–	–	–	–	–	–	–
CC(C)C[C@H](NC(=O)[C@H](Cc1ccccc1)NC(=O)c1cnccn1)B(O)O [Bortezomib]	72.4 nM	–	93.3 nM	–	–	72.4 nM	–	–	–	–	–	–	–	–	–	–	–	–	–	–	–
CC[C@H](C)[C@H](NC(=O)[C@H]([C@@H](C)CC)N(C)C(C)=O)C(=O)N[C@H](C(=O)N[C@@H](CC(C)C)C(=O)[C@@]1(C)CO1)[C@@H](C)O [Epoxomicin, reference compound]	–	6.11 ± 0.06	–	–	–	–	5.99 ± 0.01	7.50 ± 0.12	5.88 ± 0.03	7.40 ± 0.17	96.1 ± 3.0%	6.09 ± 0.04	100.1 ± 0.5%	7.44 ± 0.03	7.33 ± 0.15	6.08 ± 0.00	5.97 ± 0.03	–	–	–	–
CC(C)C[C@@H](C=O)NC(=O)[C@H](CC(C)C)NC(=O)[C@H](CC(C)C)NC(=O)OCc1ccccc1 [MG132, carbobenzoxy-l-leucyl-l-leucyl-l-leucinal, reference compound] (Cbz-Leu-Leu-Leu-aldehyde)	3980 nM	5.21 ± 0.11	3090 nM	8320 nM	8910 nM	3310 nM	–	–	–	–	66.1 ± 6.6^ a %	–	–	–	–	–	–	120 nM	115 nM	91.2 nM	IC50 [10]: 60.3 nM
CCC[C@@H](C=O)NC(=O)[C@H](CC(C)C)NC(=O)[C@H](CC(C)C)NC(=O)OCc1ccccc1 [MG115, reference compound] (Cbz-Leu-Leu-[Nva]-aldehyde)	–	5.24 ± 0.05	–	–	–	–	4.79 ± 0.11	6.04 ± 0.08	5.03 ± 0.04	6.07 ± 0.13	93.3 ± 2.9%	4.97 ± 0.09	99.4 ± 1.0%	6.38 ± 0.16	6.24 ± 0.05	4.89 ± 0.16	4.77 ± 0.07	–	–	–	–
CC(C)C[C@H](NC(=O)CNC(=O)c1cc(Cl)ccc1Cl)B(O)O [Ixazomib, reference compound]	44.7 nM	5.53 ± 0.03	46.8 nM	6920 nM	8710 nM	55 nM	–	–	–	–	52.7 ± 21.9^ a %	–	–	–	–	–	–	35.5 nM	19.5 nM	22.9 nM	IC50 [10]: 13.2 nM
